Experimental data reported in patent US20220064138A1, “MACROLIDE BREFELDIN A ESTER DERIVATIVES AND USE THEREOF” (OCEAN UNIVERSITY OF CHINA, priority 2019, published 2022).
pIC50: −log10 of the molar value.

Assays:
Experiment in all cases: Cell proliferation assay (CCK-8)
Assay type in all cases: cell-based
[1] = test system: Human cervical cancer Hela cells; conditions: 72 h
Source text: (§1) CCK-8 method: The CCK-8 method is a highly sensitive, non-radioactive colorimetric assay for the determination of the number of viable cells in cell proliferation or cytotoxicity assays. The orange formazan dye produced by the bioreduction of CCK-8 by intracellular dehydrogenase is soluble in the cell culture medium, and the amount of formazan dye produced is proportional to the number of living cells. The kit used in this method is the tetrazolium salt-WST-8 (2-(2-methoxy-4-nitrophenyl)-3-(4-nitrophenyl)-5-(2,4-disulfophenyl)-2H-tetrazolium monosodium salt) developed by Dojindo Chemical Research Institute (Dojindo), which is capable of being reduced to a water-soluble formazan dye in the presence of the electronic carrier 1-Methoxy PMS.
(§2) Human cervical cancer Hela cells, pancreatic cancer PANC-1 cells, esophageal cancer Eca-109 cells, human leukemia K562 cells, human lung cancer A549 cells, human liver cancer HepG2 cells, human gastric cancer MKN-45 cells, human breast cancer MCF7 cells were cultured in DMEM medium containing 10% FBS (fetal bovine serum), 100 U/mL penicillin and 100 μg/ml streptomycin. Hepatocellular carcinoma cells Bel-7402 were cultured in RPMI-1640 medium containing 10% FBS (fetal bovine serum), 100 U/ml penicillin and 100 μg/ml streptomycin. All cells were placed in a cell culture incubator at 37° C. with 5% CO2. Cells fluid was changed every 3-5 days, and after 80% cell fusion, trypsin digestion and passaging were performed to keep the cells in good logarithmic growth phase.
(§3) All the samples to be tested were dissolved in DMSO.
(§4) Cells in logarithmic growth phase were inoculated in 96-well plates with 5000 cells/well respectively, and after 24 h of incubation, samples were added (final concentrations as shown in the table), and biplicate wells were set up for each sample. The amount of solvent of DMSO was not higher than 2‰. After 72 h, 10 μL of CCK-8 solution was added to each well and incubated for 1.5˜3 h at 37° C. The OD value at 450 nm was measured on an plate reader.
(§5) Inhibition rate (%)=(1−[(OD450 dosed well−OD450 blank well)/(OD450 control well−OD450 blank well)])×100%
(§6) The fitted IC50 values were calculated using the log (inhibitor) vs. response-Variable slop analysis method in GraphPad Prism software.

[2] = test system: human lung cancer A549 cells; conditions: A549, 72 h
Source text: as §1, §2, §3, §4, §5, §6

[3] = test system: human gastric cancer MKN-45 cells; conditions: MKN-45, 72 h
Source text: as §1, §2, §3, §4, §5, §6

[4] = test system: human liver cancer HepG2 cells; conditions: HepG2, 72 h
Source text: as §1, §2, §3, §4, §5, §6

[5] = test system: human breast cancer MCF7 cells; conditions: MCF7, 72 h
Source text: as §1, §2, §3, §4, §5, §6

[6] = test system: pancreatic cancer PANC-1 cells; conditions: Homo sapiens, PANC-1, 72 h
Source text: as §1, §2, §3, §4, §5, §6

[7] = test system: esophageal cancer Eca-109 cells; conditions: Homo sapiens, Eca-109, 72 h
Source text: as §1, §2, §3, §4, §5, §6

[8] = test system: human leukemia K562 cells; conditions: K562, 72 h
Source text: as §1, §2, §3, §4, §5, §6

Compound `C[C@H]1CCC/C=C/[C@@H]2C[C@H](OC(=O)/C=C/c3ccccc3F)C[C@H]2[C@H](O)/C=C/C(=O)O1` [Compound 2a, 7-O-(2-fluorocinnamic acid)acyl BFA] has a pIC50 [1] of 5.00 to 6.00, a pIC50 [2] of 6.00 to 7.00 and a pIC50 [3] of 6.00 to 7.00. The pIC50 [4] was 6.00 to 7.00, the pIC50 [5] was 6.00 to 7.00 and the pIC50 [6] was 6.00 to 7.00. The pIC50 [7] was 5.00 to 6.00 and the pIC50 [8] was 6.00 to 7.00.
Work on `C[C@H]1CCC/C=C/[C@@H]2C[C@H](OC(=O)/C=C/c3cccc(Cl)c3)C[C@H]2[C@H](O)/C=C/C(=O)O1` [Compound 5a, 7-O-(3-chlorocinnamic acid)acyl BFA] yielded a pIC50 [1] of 6.00 to 7.00, a pIC50 [2] of 6.00 to 7.00 and a pIC50 [3] of 6.00 to 7.00. For the same compound, the pIC50 [4] was 6.00 to 7.00, the pIC50 [5] was 6.00 to 7.00 and the pIC50 [6] was 6.00 to 7.00. For the same compound, the pIC50 [7] was 5.00 to 6.00 and the pIC50 [8] was 6.00 to 7.00.
`Cc1cccc(/C=C/C(=O)O[C@@H]2C[C@H]3[C@H](O)/C=C/C(=O)O[C@@H](C)CCC/C=C/[C@@H]3C2)c1` [Compound 6a, 7-O-(3-methylcinnamic acid)acyl BFA] was tested, and the pIC50 [1] was 5.00 to 6.00, the pIC50 [2] was 6.00 to 7.00 and the pIC50 [3] was 6.00 to 7.00. The pIC50 [4] was 5.00 to 6.00, the pIC50 [5] was 6.00 to 7.00 and the pIC50 [6] was 6.00 to 7.00. For the same compound, the pIC50 [7] was 6.00 to 7.00 and the pIC50 [8] was 6.00 to 7.00.
`C[C@H]1CCC/C=C/[C@@H]2C[C@H](O)C[C@H]2[C@H](OC(=O)/C=C/c2ccccc2Br)/C=C/C(=O)O1` [Compound 4b, 4-O-(2-bromocinnamic acid)acyl BFA] gave a pIC50 [1] of 6.00 to 7.00, a pIC50 [2] of 6.00 to 7.00 and a pIC50 [3] of 6.00 to 7.00. The pIC50 [4] was 6.00 to 7.00, the pIC50 [5] was 6.00 to 7.00 and the pIC50 [6] was 6.00 to 7.00. For the same compound, the pIC50 [7] was 6.00 to 7.00 and the pIC50 [8] was 6.00 to 7.00.
`C[C@H]1CCC/C=C/[C@@H]2C[C@H](OC(=O)/C=C/c3ccc(F)cc3)C[C@H]2[C@H](O)/C=C/C(=O)O1` [Compound 3a, 7-O-(4-fluorocinnamic acid)acyl BFA] was tested, and the pIC50 [1] was 5.00 to 6.00, the pIC50 [2] was 6.00 to 7.00 and the pIC50 [3] was 6.00 to 7.00. The pIC50 [4] was 6.00 to 7.00, the pIC50 [5] was 6.00 to 7.00 and the pIC50 [6] was 6.00 to 7.00. For the same compound, the pIC50 [7] was 5.00 to 6.00 and the pIC50 [8] was 6.00 to 7.00.
Work on `C[C@H]1CCC/C=C/[C@@H]2C[C@H](OC(=O)/C=C/c3ccc4c(c3)OCO4)C[C@H]2[C@H](O)/C=C/C(=O)O1` [Compound 9a, 7-O—((E)-3-(benzo[d][1,3]dioxa-5-yl)acrylic acid)acyl BFA] yielded a pIC50 [1] of 5.00 to 6.00, a pIC50 [2] of 6.00 to 7.00 and a pIC50 [3] of 6.00 to 7.00. For the same compound, the pIC50 [4] was 5.00 to 6.00, the pIC50 [5] was 6.00 to 7.00 and the pIC50 [6] was 6.00 to 7.00. It also gave a pIC50 [7] of 5.00 to 6.00 and a pIC50 [8] of 6.00 to 7.00.
Compound `Cc1ccccc1/C=C/C(=O)O[C@@H]1/C=C/C(=O)O[C@@H](C)CCC/C=C/[C@@H]2C[C@H](O)C[C@H]21` [Compound 8b, 4-O-(2-methylcinnamic acid)acyl BFA] has a pIC50 [1] of 5.00 to 6.00, a pIC50 [2] of 6.00 to 7.00 and a pIC50 [3] of 6.00 to 7.00. The pIC50 [4] was 6.00 to 7.00, the pIC50 [5] was 6.00 to 7.00 and the pIC50 [6] was 6.00 to 7.00. The pIC50 [7] was 6.00 to 7.00 and the pIC50 [8] was 5.00 to 6.00.
For `C[C@H]1CCC/C=C/[C@@H]2C[C@H](OC(=O)/C=C/c3ccccn3)C[C@H]2[C@H](O)/C=C/C(=O)O1` [Compound 15a, 7-O-(3-(pyridine-2-yl)acrylic acid)acyl BFA], the pIC50 [1] was 6.00 to 7.00, the pIC50 [2] was 6.00 to 7.00 and the pIC50 [3] was 6.00 to 7.00. The pIC50 [4] was > 7.00, the pIC50 [5] was 6.00 to 7.00 and the pIC50 [6] was > 7.00. For the same compound, the pIC50 [7] was 5.00 to 6.00 and the pIC50 [8] was 6.00 to 7.00.
With `C[C@H]1CCC/C=C/[C@@H]2C[C@H](OC(=O)/C=C/c3cccc(Cl)c3)C[C@H]2[C@H](OC(=O)/C=C/c2cccc(Cl)c2)/C=C/C(=O)O1` [Compound 5c, 4,7-O-bis(3-chlorocinnamic acid)acyl BFA] the pIC50 [1] was 6.00 to 7.00, the pIC50 [2] was 6.00 to 7.00 and the pIC50 [3] was 6.00 to 7.00. For the same compound, the pIC50 [4] was 5.00 to 6.00, the pIC50 [5] was 5.00 to 6.00 and the pIC50 [6] was 5.00 to 6.00. It also gave a pIC50 [7] of 5.00 to 6.00 and a pIC50 [8] of 5.00 to 6.00.
`C[C@H]1CCC/C=C/[C@@H]2C[C@H](OC(=O)/C=C/c3ccncc3)C[C@H]2[C@H](O)/C=C/C(=O)O1` [Compound 14a, 7-O-(3-(pyridine-4-yl)acrylic acid)acyl BFA] showed a pIC50 [1] of 6.00 to 7.00, a pIC50 [2] of 6.00 to 7.00 and a pIC50 [3] of 6.00 to 7.00. For the same compound, the pIC50 [4] was > 7.00, the pIC50 [5] was 6.00 to 7.00 and the pIC50 [6] was > 7.00. For the same compound, the pIC50 [7] was 5.00 to 6.00 and the pIC50 [8] was 6.00 to 7.00.
